Test results taken from US20230210735A1, “PREVENTION, REDUCTION, OR AMELIORATION OF OLD PERSON SMELL” (Firmenich SA, priority 2020, published 2023).

What was measured:
[1] = POV reduction in model citrus perfume (mixed citrus oil in 90/10 v/v ethanol/water); settings: for % POV Reduction: model citrus perfume, vs untreated sample
[2] = POV by titration in formulated ranch salad dressing
Source text: Blank Samples: In all of the experiments below, an Untreated Oil (Blank) sample was maintained. The Blank was always packaged, stored, handled, and sampled in exactly the same manner as the Treated Sample, excepting the addition of the 2-oxoacid salt. In this way, the effect of the atmospheric oxygen in the headspace volume would be similar. For example, the ratio of the headspace volume to the volume of oil, and the area of contact between the headspace and the oil surface, would be the same for Treated and Untreated samples.
Into 30 mL glass vial was placed 15 g of a commercial salad dressing that had been stored in the lab at room temperature for an unknown but extended period after opening. To this vial, 0.4002 g of PhPA-DiMeC 10A was added and mixed well. The mixture was allowed to stand on the bench top under ambient laboratory light at room temperature. Periodically, measurements were recorded of the POV by titration, rancid-smelling aldehydes by HPLC with DNPH derivatization (see method above), and sensory evaluation.

[3] = Aldehyde and ketone reaction products by HPLC with DNPH derivatization in a soap formulation; settings: treated vs untreated soap, peak area
Experimental: The extent of rancidity in the soap formulation tested was determined by measuring the content of aldehyde and ketone reaction products of the soap oils present. DNPH derivatives of aldehydes/ketone products in soap and treated soap were synthesized as follows:
0.1000 g of a soap formulation, either treated or untreated with DiMeC10A-PhPA were separately measured and diluted to 12 mL by the addition of propan-2-ol. 1 mL of this prepared diluted mixture was added to 1 mL of diluted DNPH solution which was prepared separately by mixing DNPH (3 g/L) and 3% HCL and diluted into 12 mL by the addition of propan-2-ol. The reaction vial was stirred and kept at 40C for 1 hr to accelerate derivatization reaction. Then it was cooled to room temperature and neutralized with 20% triethylamine and centrifuged at 5000 rpm for 5 min. The sample was then injected into the HPLC column.

## CN(C)CCO.CN(C)CCO.O=C(O)CCC(=O)C(=O)O [AKG DiDeanol]
[1]; […] (24 hours), 1.0% w/v in model perfume
  POV Treated Perfume: 0.0 mmol/L

## CCCCCCCCCCN(C)C.O=C(O)C(=O)Cc1ccccc1 [DiMeC10A-PhPA]
[2]; 50 mins since addition
  % of reduction in POV: 0%
[2]; 6 hrs since addition
  % of reduction in POV: 53%
[2]; 26 hrs since addition
  % of reduction in POV: 62%
[3]
  2-nonenal % reduction: 52.4%
  decanal % reduction: 55.8%
  heptanal % reduction: 60%
  hexanal % reduction: 66.7%
  nonanal % reduction: 79%
  octanal % reduction: 72.3%
  retention time 22.9 % reduction: 51.3%
  retention time 27.7 % reduction: 72.7%
  retention time 29.8 % reduction: 70.5%
  retention time 30.6 % reduction: 65.5%
  retention time 31.05 % reduction: 68.1%
  retention time […] reduction: 63.3%

## CCC(CC)(C(=O)[O-])C(=O)C(=O)O.[Na+] [Diethyloxaloacetate, Sodium Salt]
[1]; 165 Minutes after addition of treating compound
  % POV Reduction: 36.9%
[1]; 24 hours after addition of treating compound
  % POV Reduction: 92.7%
